Results as given in patent publication US20260285875A1, “INHIBITORS OF PARG” (858 Therapeutics, Inc., priority 2023, published 2026).

Molecular target: T1, cellular PARG (Homo sapiens, UniProt Q86W56)
T1 construct: endogenous in cells; host or cells: HeLa
Assay: Nuclear PAR accumulation assay (immunofluorescence high-content imaging, MMS-treated HeLa cells)
Format: cell-based
Conditions: 1 hour compound then MMS 50 μg/mL for an additional hour
Outline: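 HeLa cells pretreated with compound for 1 h at 37° C, then given 50 μg/mL MMS for another hour. After methanol fixation, PAR was immunostained with DAPI nuclear counterstain; per-nucleus intensity and percent PAR-positive cells were imaged at 20× (≥1,000 cells/well). IC50 from four-parameter logistic fit.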

T1 sequence (Q86W56 whole entry): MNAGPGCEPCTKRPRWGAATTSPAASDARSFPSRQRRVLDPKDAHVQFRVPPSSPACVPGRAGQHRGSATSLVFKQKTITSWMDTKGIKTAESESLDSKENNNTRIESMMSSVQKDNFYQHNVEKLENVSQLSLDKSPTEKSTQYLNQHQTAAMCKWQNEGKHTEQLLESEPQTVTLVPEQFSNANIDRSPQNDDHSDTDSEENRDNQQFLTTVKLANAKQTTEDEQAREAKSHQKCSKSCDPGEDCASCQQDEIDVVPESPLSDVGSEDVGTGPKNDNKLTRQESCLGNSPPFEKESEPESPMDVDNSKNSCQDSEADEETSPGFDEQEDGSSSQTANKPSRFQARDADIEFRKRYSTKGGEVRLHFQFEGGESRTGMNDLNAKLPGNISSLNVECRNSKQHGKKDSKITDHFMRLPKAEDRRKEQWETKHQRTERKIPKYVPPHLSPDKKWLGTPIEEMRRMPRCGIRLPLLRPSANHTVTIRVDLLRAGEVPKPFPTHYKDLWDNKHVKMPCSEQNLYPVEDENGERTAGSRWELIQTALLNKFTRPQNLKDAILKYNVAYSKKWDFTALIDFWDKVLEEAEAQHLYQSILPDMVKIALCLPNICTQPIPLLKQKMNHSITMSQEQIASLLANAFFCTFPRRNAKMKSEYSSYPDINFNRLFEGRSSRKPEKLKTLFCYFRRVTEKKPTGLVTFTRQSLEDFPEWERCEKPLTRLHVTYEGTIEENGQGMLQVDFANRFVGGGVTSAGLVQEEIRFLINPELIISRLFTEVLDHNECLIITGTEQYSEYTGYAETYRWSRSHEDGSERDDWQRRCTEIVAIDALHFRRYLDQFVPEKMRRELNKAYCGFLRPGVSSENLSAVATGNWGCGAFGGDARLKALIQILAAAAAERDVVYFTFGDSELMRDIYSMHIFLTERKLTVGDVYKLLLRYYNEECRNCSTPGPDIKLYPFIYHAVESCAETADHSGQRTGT

Structure (SMILES)	IC50
[2H]C([2H])(c1cnn(C)c1)N1C(=O)c2cc(S(=O)(=O)NC3(C)CC3)ccc2N2C1=NC[C@H]2C#Cc1cncnc1OC [Example 262, (R)-1-((4-methoxypyrimidin-5-yl)ethynyl)-4-((1-methyl-1H-pyrazol-4-yl)methyl-d2)-N-(1-methylcyclopropyl)-5-oxo-1,2,4,5-tetrahydroimidazo[1,2-a]quinazoline-7-sulfonamide]	< 100 nM
CNC(=O)c1ccc(-c2cc(S(=O)(=O)NC3(C)CC3)cc3c2N2CC(C)(C)N=C2N(C)C3=O)cn1 [Example 58, N-methyl-5-(2,2,4-trimethyl-7-(N-(1-methylcyclopropyl)sulfamoyl)-5-oxo-1,2,4,5-tetrahydroimidazo[1,2-a]quinazolin-9-yl)picolinamide]	100 to 1000 nM
CC(=O)N1CCN(c2cc(S(=O)(=O)NC3(C)CC3)cc3c2N2C(=NC[C@H]2C)N(Cc2cnn(C)c2)C3=O)CC1 [Example 292, (R)-9-(4-acetylpiperazin-1-yl)-1-methyl-4-((1-methyl-1H-pyrazol-4-yl)methyl)-N-(1-methylcyclopropyl)-5-oxo-1,2,4,5-tetrahydroimidazo[1,2-a]quinazoline-7-sulfonamide]	100 to 1000 nM
[2H]C([2H])(c1cnn(C)c1)N1C(=O)c2cc(S(=O)(=O)NC3(C)CC3)cc(Cl)c2N2C1=NC[C@H]2C#C [Example 111, (R)-9-chloro-1-ethynyl-4-((1-methyl-1H-pyrazol-4-yl)methyl-d2)-N-(1-methylcyclopropyl)-5-oxo-1,2,4,5-tetrahydroimidazo[1,2-a]quinazoline-7-sulfonamide]	< 100 nM
C[C@@H]1CN=C2N(Cc3cn(C)nc3C3CC3)C(=O)c3cc(S(=O)(=O)NC4(C)CC4)ccc3N21 [Example 230, (R)-4-((3-cyclopropyl-1-methyl-1H-pyrazol-4-yl)methyl)-1-methyl-N-(1-methylcyclopropyl)-5-oxo-1,2,4,5-tetrahydroimidazo[1,2-a]quinazoline-7-sulfonamide]	< 100 nM
C[C@@H]1CN=C2N(CC(F)F)C(=O)c3cc(S(=O)(=O)NC4(C)CC4)ccc3N21 [Example 139, (R)-4-(2,2-difluoroethyl)-1-methyl-N-(1-methylcyclopropyl)-5-oxo-1,2,4,5-tetrahydroimidazo[1,2-a]quinazoline-7-sulfonamide]	100 to 1000 nM
[2H]C([2H])(c1cnn(C)c1)N1C(=O)c2cc(S(=O)(=O)NC3(C)CC3)c(N(C)C)cc2N2C1=N[C@H]1CCC[C@H]12 [Example 214, (7aS,10aR)-2-(dimethylamino)-6-((1-methyl-1H-pyrazol-4-yl)methyl-d2)-N-(1-methylcyclopropyl)-5-oxo-6,7a,8,9,10,10a-hexahydro-5H-cyclopenta[4,5]imidazo[1,2-a]quinazoline-3-sulfonamide]	1000 to 10000 nM
[2H]C([2H])(c1cnn(C)c1)N1C(=O)c2cc(S(=O)(=O)NC3(C)CC3)ccc2N2C1=NC[C@H]2C#Cc1cn(C)nc1C [Example 232, (R)-1-((1,3-dimethyl-1H-pyrazol-4-yl)ethynyl)-4-((1-methyl-1H-pyrazol-4-yl)methyl-d2)-N-(1-methylcyclopropyl)-5-oxo-1,2,4,5-tetrahydroimidazo[1,2-a]quinazoline-7-sulfonamide]	< 100 nM
CN1C(=O)c2cc(S(=O)(=O)NC3(C)CC3)ccc2N2C1=NC[C@H]2C#Cc1ccc2cn(C)nc2c1 [Example 147, (R)-4-methyl-1-((2-methyl-2H-indazol-6-yl)ethynyl)-N-(1-methylcyclopropyl)-5-oxo-1,2,4,5-tetrahydroimidazo[1,2-a]quinazoline-7-sulfonamide]	< 100 nM
COc1cc(C#CC2CN=C3N(C)C(=O)c4cc(S(=O)(=O)NC5(C)CC5)ccc4N32)ccn1 (stereo not shown) [Example 227, 1-((2-methoxypyridin-4-yl)ethynyl)-4-methyl-N-(1-methylcyclopropyl)-5-oxo-1,2,4,5-tetrahydroimidazo[1,2-a]quinazoline-7-sulfonamide]	< 100 nM
[2H]C([2H])(c1cnn(C)c1)N1C(=O)c2cc(S(=O)(=O)NC3(C)CC3)c(SC)cc2N2C1=N[C@H]1CCC[C@H]12 [Example 240, (7aS,10aR)-6-((1-methyl-1H-pyrazol-4-yl)methyl-d2)-N-(1-methylcyclopropyl)-2-(methylthio)-5-oxo-6,7a,8,9,10,10a-hexahydro-5H-cyclopenta[4,5]imidazo[1,2-a]quinazoline-3-sulfonamide]	100 to 1000 nM
CCN1C(=O)c2cc(S(=O)(=O)NC3(C)CC3)ccc2N2C1=NC[C@H]2C#Cc1c2ncccc2nn1C [Example 208, (R)-4-ethyl-1-((2-methyl-2H-pyrazolo[4,3-b]pyridin-3-yl)ethynyl)-N-(1-methylcyclopropyl)-5-oxo-1,2,4,5-tetrahydroimidazo[1,2-a]quinazoline-7-sulfonamide]	< 100 nM
C[C@@H]1CN=C2N(Cc3cccnc3CC#N)C(=O)c3cc(S(=O)(=O)NC4(C)CC4)ccc3N21 [Example 247, (R)-4-((2-(cyanomethyl)pyridin-3-yl)methyl)-1-methyl-N-(1-methylcyclopropyl)-5-oxo-1,2,4,5-tetrahydroimidazo[1,2-a]quinazoline-7-sulfonamide]	100 to 1000 nM
CN1C(=O)c2cc(S(=O)(=O)NC3(C)CC3)ccc2N2C1=NCC2C#Cc1cnn(C)c(=O)c1 (stereo not shown) [Example 175, 4-methyl-1-((1-methyl-6-oxo-1,6-dihydropyridazin-4-yl)ethynyl)-N-(1-methylcyclopropyl)-5-oxo-1,2,4,5-tetrahydroimidazo[1,2-a]quinazoline-7-sulfonamide]	< 100 nM
CNC(=O)c1ccc(-c2cc(S(=O)(=O)NC3(C)CC3)cc3c2N2C(=N[C@H]4CCC[C@H]42)N(C)C3=O)cn1 [Example 50, N-methyl-5-((7aS,10aR)-6-methyl-3-(N-(1-methylcyclopropyl)sulfamoyl)-5-oxo-6,7a,8,9,10,10a-hexahydro-5H-cyclopenta[4,5]imidazo[1,2-a]quinazolin-1-yl)picolinamide]	100 to 1000 nM
[2H]C([2H])(c1cnn(C)c1)N1C(=O)c2cc(S(=O)(=O)NC3(C)CC3)ccc2N2C1=NC[C@H]2C#Cc1cn(C)nc1F [Example 101, (R)-1-((3-fluoro-1-methyl-1H-pyrazol-4-yl)ethynyl)-4-((1-methyl-1H-pyrazol-4-yl)methyl-d2)-N-(1-methylcyclopropyl)-5-oxo-1,2,4,5-tetrahydroimidazo[1,2-a]quinazoline-7-sulfonamide]	< 100 nM
[2H]C([2H])(c1cnn(C)c1)N1C(=O)c2cc(S(=O)(=O)NC3(C)CC3)ccc2N2C1=NC[C@H]2C#Cc1cnc(C2CC2)nc1 [Example 261, (R)-1-((2-cyclopropylpyrimidin-5-yl)ethynyl)-4-((1-methyl-1H-pyrazol-4-yl)methyl-d2)-N-(1-methylcyclopropyl)-5-oxo-1,2,4,5-tetrahydroimidazo[1,2-a]quinazoline-7-sulfonamide]	< 100 nM

The next lines start with the values.

IC50	Structure (SMILES)
100 to 1000 nM	C[C@H]1CON=C2N(Cc3cnn(C)c3)C(=O)c3cc(S(=O)(=O)NC4(C)CC4)ccc3N21 [Example 220, (S)-1-methyl-5-((1-methyl-1H-pyrazol-4-yl)methyl)-N-(1-methylcyclopropyl)-6-oxo-1,2,5,6-tetrahydro-[1,2,4]oxadiazino[4,3-a]quinazoline-8-sulfonamide]
100 to 1000 nM	Cn1cc(CN2C(=O)c3cc(S(=O)(=O)NC4(C)CC4)ccc3N3C2=N[C@H]2CCNC[C@H]23)cn1 [Example 160, (7aS,11aR)-6-((1-methyl-1H-pyrazol-4-yl)methyl)-N-(1-methylcyclopropyl)-5-oxo-5,6,7a,8,9,10,11,11a-octahydropyrido[4′,3′:4,5]imidazo[1,2-a]quinazoline-3-sulfonamide]
< 100 nM	Cn1cc(CN2C(=O)c3cc(S(=O)(=O)NC4(C)CC4)ccc3N3C2=NC[C@H]3C#Cc2cnnn2C)cn1 [Example 166, (R)-1-((1-methyl-1H-1,2,3-triazol-5-yl)ethynyl)-4-((1-methyl-1H-pyrazol-4-yl)methyl)-N-(1-methylcyclopropyl)-5-oxo-1,2,4,5-tetrahydroimidazo[1,2-a]quinazoline-7-sulfonamide]
< 100 nM	[2H]C([2H])(c1cnn(C)c1)N1C(=O)c2cc(S(=O)(=O)NC3(C)CC3)ccc2N2C1=NC[C@H]2COc1ccccn1 [Example 110, (S)-4-((1-methyl-1H-pyrazol-4-yl)methyl-d2)-N-(1-methylcyclopropyl)-5-oxo-1-((pyridin-2-yloxy)methyl)-1,2,4,5-tetrahydroimidazo[1,2-a]quinazoline-7-sulfonamide]
< 100 nM	Cn1cc(CN2C(=O)c3cc(S(=O)(=O)NC4(C)CC4)ccc3N3C[C@H](c4ccccc4)N=C23)cn1 [Example 155, (S)-4-((1-methyl-1H-pyrazol-4-yl)methyl)-N-(1-methylcyclopropyl)-5-oxo-2-phenyl-1,2,4,5-tetrahydroimidazo[1,2-a]quinazoline-7-sulfonamide]
< 100 nM	Cn1cc(CN2C(=O)c3cc(S(=O)(=O)NC4(C)CC4)ccc3N3C2=NC[C@H]3C(F)F)cn1 [Example 47, (S)-1-(difluoromethyl)-4-((1-methyl-1H-pyrazol-4-yl)methyl)-N-(1-methylcyclopropyl)-5-oxo-1,2,4,5-tetrahydroimidazo[1,2-a]quinazoline-7-sulfonamide]
< 100 nM	[2H]C([2H])(c1cnn(C)c1)N1C(=O)c2cc(S(=O)(=O)NC3(C)CC3)ccc2N2C1=NC[C@H]2C#CCN(C)C [Example 55, (R)-1-(3-(dimethylamino)prop-1-yn-1-yl)-4-((1-methyl-1H-pyrazol-4-yl)methyl-d2)-N-(1-methylcyclopropyl)-5-oxo-1,2,4,5-tetrahydroimidazo[1,2-a]quinazoline-7-sulfonamide]
100 to 1000 nM	Cn1cc(CN2C(=O)c3cc(S(=O)(=O)NC4(C)CC4)ccc3N3C2=NC[C@H]3CCC#N)cn1 [Example 128, (R)-1-(2-cyanoethyl)-4-((1-methyl-1H-pyrazol-4-yl)methyl)-N-(1-methylcyclopropyl)-5-oxo-1,2,4,5-tetrahydroimidazo[1,2-a]quinazoline-7-sulfonamide]
